Laboratory results: publication PMC11290694 (Science (New York, N.Y.), 2024)
Read-outs that look alike come from different tables or passages of the source.

Columns and labels:
[1] = target: PiB; experiment: UV-visible absorption titration, single-site global fit; format: binding, synthetic construct
[2] = target: PiB′; experiment: as above; format: binding, synthetic construct

NC(=O)c1cccc2cn(-c3ccc([C@@H]4CCCNC4)cc3)nc12 [niraparib]
Kd [1]: 600 nM | Kd [2]: 550 nM

CNCc1ccc(-c2cc3cc(F)cc(C(N)=O)c3o2)cc1 [mefuparib]
Kd [1]: 190 nM | Kd ([2]; PDB 8TNB is labelled mefuparib-bound PiB in b31 but PiB′ in b20 and b22): 350 nM
